One compound from US11008325B2, “Inhibitors of cancer invasion, attachment, and/or metastasis” (VIRGINIA COMMONWEALTH UNIVERSITY, priority 2016, dated 2021) can be followed below.

The test system of one assay is GBM6 cells. The assay is described as follows: orthotopic GBM6 xenograft model. The assay is classed as in vivo, mice. On the procedure:
FIGS. 13A-13E. Effect of PDZ1i on survival in an in vivo model of glioma. GBM6 cells were pretreated for 2 hrs prior to intracranial injection with vehicle (DMSO) or PDZ1i and after 7 days, brain tissue was isolated and sectioned at injection site. FIG. 13A, brain tissue at site of injection of DMSO treated cells; FIG. 13B, brain tissue are site of injection of PDZ1i treated cells. 7 days after tumor implantation, mice received either vehicle or PDZ1i (30 mg/kg) three times per week for 3 weeks. Brain tissue was isolated and analyzed via H&E stain, FIG. 13C, brain tissue from mice treated with vehicle; FIG. 13D, brain tissue from mice treated with PDZ1i. FIG. 13E, Kaplan-Myer curves of these groups based on animal survival. **p<0.01.
PDZ1i is effective in reducing tumor invasion in an animal model of GBM. To test the efficacy of PDZ1i, we used an orthotopic xenograft model with GBM6 cells that were pretreated with either DMSO or PDZ1i and injected intracranially to form tumors. Seven d post injection tumor and brain tissue were isolated for sectioning. […] Separately, untreated cells were injected and tumors established, then mice were treated IP with either DMSO or PDZ1i (30 mg/kg) three times per wk for two wk. […]

A further assay deals with ARCaPM-Luc cells. Briefly: PDZ1i pre-treated ARCaPM-Luc cells injected intravenously. The assay is classed as in vivo, athymic nude mice. On the procedure:
FIG. 19A-19F. PDZ1i suppresses prostate cancer metastasis and tumor progression. FIG. 19A) Survival data for athymic nude mice in which DMSO or PDZ1i pre-treated ARCaPM cells were injected. FIG. 19B) Survival data for athymic nude mice which were injected with (n=5, each group) ARCaPM-Luc (1×10^6 cells in 100 μl saline) through an intracardiac route. Mice received either vehicle or PDZ1i every alternative day (9 injections during the first three months) and maintained until they needed to be euthanized. FIG. 19C) Survival data for C57BL/6 mice injected through the intracardiac route with RM1-Luc. Vehicle or PDZ1i was administered through intraperitoneal injection every alternate day (total 3 injections during the first week). Survival curves were generated using 6 control vehicle-treated and 5 PDZ1i-treated. Kaplan—Meier survival curves were prepared using Graph Pad software. […] Graphical representation of the average prostate weights from control and treated groups. FIG. 19E and FIG. 19F) Photomicrographs representing the histological changes in prostate sections obtained from 6-month old Hi-Myc mice receiving either vehicle (FIG. 19E) or PDZ1i (FIG. 19F).
To evaluate potential therapeutic efficacy of PDZ1i four sets of in vivo experiments were conducted. […]

Molecules are shown by their SMILES.

On to `Cc1cc(NC(=O)c2nc3[nH]c4c(c(=O)n3n2)CCC4)c(C)cc1NC(=O)CCc1nnc(-c2ccccc2)o1` [113B7, N-(2,5-dimethyl-4-(3-(5-phenyl-1,3,4-oxadiazol-2-yl)propanamido)phenyl)-8-oxo-5,6,7,8-tetrahydro-4H-cyclopenta[d][1,2,4]triazolo[1,5-a]pyrimidine-2-carboxamide], for which the survival result is listed as “significantly increased” in the assay with GBM6 cells (PDZ1i 30 mg/kg IP three times per wk) and “survived longer” with ARCaPM-Luc cells (cells pre-treated with PDZ1i). Also, in the assay with GBM6 cells (cells pretreated with PDZ1i, 7 d post intracranial injection), the “tumor size and demarcation” value was “noticeably smaller and more demarcated neoplasms”. Also, the “cancer cell concentrations in the lungs” value in the assay on ARCaPM-Luc cells (cells pre-treated with 50 μM PDZ1i) was “lower cancer cell concentrations in the lungs”.
